Laboratory results taken from the METLIN SMRT retention time set (Domingo-Almenara et al. 2019).

Assay: gradient 5% acetonitrile 3 min, to 50% in 2 min, to 85% in 15 min, held 3 min, 100 µL/min
Details: column: Zorbax Extend-C18 2.1 x 50 mm; eluents: water / acetonitrile, 0.1% formic acid
Outline: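 Over 3 months, pure standards in mixtures of ~100 molecules were run by HPLC coupled to a quadrupole time-of-flight mass spectrometer in positive and negative ionization mode. The column was a Zorbax Extend-C18 (2.1 × 50 mm, 1.8 μm) at 100 μL/min, eluted with water and acetonitrile each holding 0.1% formic acid, with 40 μL dead and 900 μL dwell volumes. Retention time was determined from adduct peaks chosen by software and checked manually.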

| Structure (SMILES) | RP-LC retention time |
| --- | --- |
| O=S(=O)(c1ccc(-c2cc(C(F)(F)F)on2)o1)N1CCN(c2ncccn2)CC1 | 1060 s |
| O=C(Cc1ccccc1Cl)Nc1ccc(-c2nc(-c3ccccc3)co2)cc1 | 1150 s |
| Cc1ccc(CNC(=O)C2CCN(S(=O)(=O)c3cc(C(=O)N(C)C)cs3)CC2)cc1 | 762 s |
| COc1cc(C(=O)Nc2noc3ncccc23)cc(OC)c1OC | 620 s |
| COc1ccccc1C(=O)N1CC(Oc2cccc(-c3nc(-c4ccccc4)no3)c2)C1 | 1130 s |
| CCn1cc(CCN2CCC(C(=O)N(C)C)CC2)c2cccnc21 | 566 s |
| O=C(NCCCN1CCCC1=O)c1cc2c(s1)CCN(C(=O)c1ccc(F)cc1)C2 | 670 s |
| CC1=NS(=O)(=O)N(C)C=C1C(=O)OCc1cc(F)cc(F)c1 | 934 s |
| CCc1nnc(-c2coc(S(=O)(=O)N3CCC(N4CCCCC4)CC3)c2)o1 | 607 s |
| O=C(NC1CCCCCCC1)C1CCN(C(=O)c2cccn2-c2cccnc2)CC1 | 797 s |
| COC(=O)c1c(NCCN2CCCc3ccccc32)c2cc(F)ccc2[nH]c1=O | 952 s |
| Cc1ccc(NC(=O)Cn2nc3c(N4CCN(c5ccccc5C)CC4)nccn3c2=O)cc1 | 1080 s |
| CCn1nccc1C(=O)N1CCCN(c2nnc3ccccn23)CC1 | 879 s |
| O=C(c1ccnnc1)N1C[C@@H](COCC2CC2)[C@H](c2ccncc2)C1 | 570 s |
| CC(C)(C)C(=O)Nc1ccc2nc(N3CCN(c4ccccc4)CC3)cc(C(=O)O)c2c1 | 683 s |
| O=C1CN(Cc2ccc(F)cc2Cl)C2(CCCC2)CN1 | 668 s |
| CN1CCC(NC(=O)c2n[nH]c3c2CN(C(=O)c2ccc(F)cc2F)CC3)CC1 | 578 s |
| Cc1nnc2ccc(S(=O)(=O)N(Cc3ccccc3)c3ccc(Cl)cc3)cn12 | 930 s |
| CCc1cccc(C)c1Nc1c(-c2ccc(O)c(OC)c2)nc2ncccn12 | 686 s |
| COc1ccccc1OCC(=O)N1CCN(c2cc(C(C)C)n3cnnc3n2)CC1 | 626 s |
| COc1ccccc1-c1noc(C2CCCN2C(=O)c2ccccc2C)n1 (stereo not drawn) | 896 s |
| COc1ccccc1N1CCN(C(=O)c2ccc(OCc3nc(C4CC4)cs3)cc2)CC1 | 911 s |
| O=S(=O)(c1cccc(-c2nnc(-c3ccc(F)cc3)o2)c1)N1CCOCC1 | 892 s |
| Cc1noc(-c2nn(C)c3c2CN(C(=O)Nc2cccc(F)c2)CC3)n1 | 744 s |
| COc1ccc(NC(=O)N2CCCC2c2nc(-c3ccc(OC)cc3)no2)cc1 (stereo not drawn) | 876 s |

| Structure (SMILES) | RP-LC retention time |
| --- | --- |
| COc1cc2c(cc1CNC(=O)c1ccco1)OCCCO2 | 755 s |
| O=C(c1ccc(Br)o1)N1CC2CN(S(=O)(=O)c3ccccc3)CC(C1)O2 | 781 s |
| Cc1oc(-c2[nH]ncc2C(=O)N2CCOCC2)cc1S(=O)(=O)Nc1cccc(F)c1 | 669 s |
| Fc1ccc(Cn2cc(-c3noc(C4CCCC4)n3)nn2)cc1 | 991 s |
| CN1CCCc2ccc(NC(=O)CC3CCCN(c4cn[nH]c(=O)c4)C3)cc21 (stereo not drawn) | 638 s |
| O=C(NCc1ccc2c(c1)OCO2)C(=O)c1cccn1Cc1ccccc1 | 980 s |
| CC(C)CN1CCn2cc(S(=O)(=O)NCc3cc(F)cc(F)c3)cc2C1=O | 808 s |
| Cc1nn(C)c(C)c1S(=O)(=O)N1CCC(Cc2nc(-c3cccnc3)n[nH]2)C1 (stereo not drawn) | 598 s |
| COc1ccc(OCC(=O)N2CCN(Cc3noc4ccccc34)CC2)cc1 | 711 s |
| O=S(=O)(c1ccccc1)N1CCCC(c2nc(CCOCC3CC3)no2)C1 (stereo not drawn) | 924 s |
| CN1C(=O)[C@H]2CN(Cc3cn[nH]c3-c3ccc(F)cc3)C[C@H]2C1=O | 575 s |
| Cc1cc(NC(=O)CN2CCc3[nH]c4c(C)c(C)ccc4c(=O)c3C2)ccc1F | 626 s |
| COc1ccc2c(c1)C1(CCN(C(=O)Cc3cccc(F)c3)C1)C(=O)N2C (stereo not drawn) | 788 s |
| FC(F)(F)c1nc2cc3c(cc2n1Cc1ccc(Br)cc1)OCCO3 | 1080 s |
| O=C(NCc1ccc(N2CCOCC2)cc1)c1cccc2c1CCN2C(=O)C1CC1 | 735 s |
| COc1ccc(-c2noc(C3CCCN3C(=O)C3CCCC3)n2)cc1 (stereo not drawn) | 978 s |
| COc1ccc(NC(=O)Cn2c(C(F)(F)F)nc3cc4c(cc32)OCCO4)cc1 | 829 s |
| Cc1nn(-c2ccccc2)c(C)c1/C=C1\Oc2cc(O)ccc2C1=O | 782 s |
| COc1ccc(NC(=O)C2CCN(c3cnc4nccnc4c3)CC2)cc1Cl | 712 s |
| COc1ccc(-c2noc(-c3cccn3CC(=O)NCc3ccco3)n2)cc1F | 984 s |
| COc1ccc(-c2nc(CN3C(=O)C(O)(c4ccccc4)c4ccccc43)c(C)o2)cc1 (stereo not drawn) | 1040 s |
| Cn1ccc2cc(S(=O)(=O)N3CCCC(C(=O)NC4CCN(Cc5ccccc5)CC4)C3)ccc21 (stereo not drawn) | 685 s |
| COCCC(=O)N1CCC(c2noc(C3CC3)n2)C1 (stereo not drawn) | 627 s |
| CC(=O)Nc1c(C)nn(-c2ccccc2)c1N1CCC(C(=O)NCCCN2CCCC2=O)CC1 | 605 s |
| c1ccc(-c2nc3ncc4c(n3n2)CCCCC4)cc1 | 892 s |

Further lines, results first:

| RP-LC retention time | Structure (SMILES) |
| --- | --- |
| 670 s | Cc1ccc(-c2noc(Cn3ccnc3C)n2)cc1C |
| 1120 s | COc1cc(C(=O)Nc2nc(-c3ccc(Cl)cc3)cs2)cc(OC)c1OC |
| 1180 s | Cc1sc(-c2cc(C(F)(F)F)on2)cc1S(=O)(=O)Nc1cccc(Cl)c1 |
| 602 s | CCOC(=O)CNC(=O)N1CCN(Cc2nc3cccnc3n2-c2ccc(F)cc2)CC1 |
| 833 s | Cc1ccccc1Nc1c(-c2ccc(N(C)C)cc2)nc2cnccn12 |
| 845 s | COCCn1c(C)cc(O)c(C(c2ccc(OC)cc2)N2CCC(C)CC2)c1=O (stereo not drawn) |
| 648 s | Cc1ccc2[nH]c(=O)nc(-c3ccccc3)c2c1 |
| 810 s | COc1ccc(OC)c(NC(=O)C2CCCN(c3nnc4ccc(Cl)cn34)C2)c1 (stereo not drawn) |
| 1130 s | CCOc1cccc(-c2noc(CCn3nc(-c4ccc(Cl)cc4)ccc3=O)n2)c1 |
| 990 s | O=C(CNS(=O)(=O)c1ccc(F)cc1)N1CCCC1c1nc(-c2ccc(Cl)cc2)no1 (stereo not drawn) |
| 750 s | COc1ccccc1-c1cc(C(=O)N2CCCN(c3ccc(=O)n(-c4ccccc4)n3)CC2)[nH]n1 |
| 831 s | CCC(C(=O)NC(C)C)n1nc(C)c2nn(-c3ccccc3)c(C)c2c1=O (stereo not drawn) |
| 1010 s | CCOc1ccc(-c2nc(C3CC(=O)N(c4ccc(F)cc4)C3)no2)cc1 (stereo not drawn) |
| 653 s | Cc1cccc(NC(=O)C2CCN(S(=O)(=O)c3cc(C(=O)N4CCCC4)n(C)c3)CC2)n1 |
| 607 s | CC(C)n1cnc2cc(CNC(=O)Cc3cccc(F)c3)ccc21 |
| 890 s | Cn1c(=O)n(C)c2cc(N3CCCCC3)c(NC(=O)c3cccs3)cc21 |
| 582 s | CCCCN1CCN(C(=O)c2cc(-c3ccncc3)cn2Cc2ccc(C)cc2)CC1 |
| 887 s | O=C(CSc1nnc(-c2ccco2)o1)N1CCCc2ccccc21 |
| 901 s | COc1ccc(S(=O)(=O)N2CCCC(C(=O)NC3CCCC3)C2)cc1C (stereo not drawn) |

| RP-LC retention time | Structure (SMILES) |
| --- | --- |
| 591 s | CNC(=O)c1cc[nH]c1C1CCCN(C(=O)c2cscn2)C1 (stereo not drawn) |
| 938 s | Cc1csc(-c2ccc(CNC(=O)c3cc4ccccc4[nH]3)cc2)n1 |
| 901 s | COc1ccc(-c2nc(-c3cn(Cc4cccc(F)c4)nn3)no2)cc1OC |
| 799 s | Cc1csc2nc(CSc3nnc(-c4ccccc4F)o3)cc(=O)n12 |
| 586 s | Cc1cc(C)c(C(=O)N2CCC(CC(=O)NCCCN3CCCC3)CC2)[nH]1 |
| 949 s | Cc1[nH]c(C(=O)Nc2ccc(F)cc2F)c(C)c1S(=O)(=O)N1CCCCC1 |
| 720 s | CCNC(=O)C1=CCN(C(=O)c2cc(C)cc(C)c2)CC1 |
| 676 s | COc1ccc(NC(=O)N2CCC3(C2)C(=O)Nc2ccccc23)cc1OC (stereo not drawn) |
| 914 s | CC(C)c1ccc(-n2nc(N3CCN(C(=O)c4ccc5c(c4)OCO5)CC3)ccc2=O)cc1 |
| 1000 s | O=c1n(CCOc2ccccc2)nc2c(S(=O)(=O)N3CCN(c4ccc(F)cc4)CC3)cccn12 |
| 903 s | Cc1noc(-c2ccnc(-n3cnc(C(=O)NCc4ccc(Cl)cc4)c3)c2)n1 |
| 755 s | O=C(c1ccccc1Cl)N1CCN(Cc2noc3ccccc23)CC1 |
| 723 s | Cc1cc(N2CCOCC2)nc(N2CCN(C(=O)c3ccc(C(C)(C)C)cc3)CC2)n1 |
| 1190 s | COc1ccc(-c2noc(-c3nnn4c3COC(c3ccc(C)cc3C)C4)n2)cc1OC (stereo not drawn) |
| 602 s | CCN(CC)CCNC(=O)C1COc2ccc(OC)cc2C1 (stereo not drawn) |
| 812 s | Cc1noc(-c2cc(=O)n(CC(=O)NCc3ccccc3)c3ccccc23)n1 |
| 876 s | Cc1oc(-c2ccc(C(=O)NCC3COCCO3)cc2)nc1CN1CCc2ccccc21 (stereo not drawn) |
| 653 s | Cc1oc2c(c1C(=O)NC(C)c1ccccc1)C1=NC(C)(C)CN1C=N2 (stereo not drawn) |
| 1100 s | Cc1ccc(-c2noc(Cn3ncn4nc(-c5cccs5)cc4c3=O)n2)cc1 |
